Measured values reported in ChEMBL document CHEMBL1153031, “Evaluation of anti-inflammatory effect of synthetic 1,5-bis(4-acetoxy-3-methoxyphenyl)-1,4-pentadien-3-one, HB2” (Bioorg Med Chem, 2009).
One block for each compound: values may come before it. Activity calls are given as the source filed them. The calls are words filed in the database; no cut-off is given here.

What was measured:
Mus musculus [1] = experiment: Antiinflammatory activity against bradykinin-induced paw oedema in mouse at 1 mg/kg, ip treated 30 mins before bradykinin challenge measured after 30 mins by plethysmometry analysis; assay type: functional; conditions: route intraperitoneal
Mus musculus [2] = experiment: Antiinflammatory activity against bradykinin-induced paw oedema in mouse at 1 mg/kg, ip treated 30 mins before bradykinin challenge measured after 120 mins by plethysmometry analysis; assay type: functional; conditions: route intraperitoneal
Mus musculus [3] = experiment: Antiinflammatory activity against carrageenan-induced paw oedema in mouse at 1 mg/kg, ip treated 30 mins before carrageenan challenge measured after 2 hrs by plethysmometry analysis; assay type: functional; conditions: route intraperitoneal
Mus musculus [4] = experiment: Antiinflammatory activity against bradykinin-induced paw oedema in mouse at 1 mg/kg, ip treated 30 mins before bradykinin challenge measured after 15 mins by plethysmometry analysis; assay type: functional; conditions: route intraperitoneal
Mus musculus [5] = experiment: Antiinflammatory activity against carrageenan-induced paw oedema in mouse at 1 mg/kg, ip treated 30 mins before carrageenan challenge measured after 4 hrs by plethysmometry analysis; assay type: functional; conditions: route intraperitoneal
Mus musculus [6] = experiment: Antiinflammatory activity against bradykinin-induced paw oedema in mouse at 1 mg/kg, ip treated 30 mins before bradykinin challenge measured after 240 mins by plethysmometry analysis; assay type: functional; conditions: route intraperitoneal
Mus musculus [7] = experiment: Antiinflammatory activity against carrageenan-induced paw oedema in mouse at 1 mg/kg, ip treated 30 mins before carrageenan challenge measured after 5 hrs by plethysmometry analysis; assay type: functional; conditions: route intraperitoneal
Mus musculus [8] = experiment: Antiinflammatory activity against bradykinin-induced paw oedema in mouse at 1 mg/kg, ip treated 30 mins before bradykinin challenge measured after 60 mins by plethysmometry analysis; assay type: functional; conditions: route intraperitoneal
Mus musculus [9] = experiment: Antiinflammatory activity against carrageenan-induced paw oedema in mouse at 1 mg/kg, ip treated 30 mins before carrageenan challenge measured after 1 hr by plethysmometry analysis; assay type: functional; conditions: route intraperitoneal
Mus musculus [10] = experiment: Antiinflammatory activity against carrageenan-induced paw oedema in mouse at 1 mg/kg, ip treated 30 mins before carrageenan challenge measured after 6 hrs by plethysmometry analysis; assay type: functional; conditions: route intraperitoneal
Mus musculus [11] = experiment: Antiinflammatory activity in mouse assessed as reduction in total cell count in peritoneal exudate during carrageenan-induced inflammation at 0.5 mg/kg, sc administered 4 hrs before carrageenan challenge measured after 4 hrs; assay type: functional; set-up: scale not given: the % may be the effect or the level left; conditions: route subcutaneous
Mus musculus [12] = experiment: Antiinflammatory activity against bradykinin-induced paw oedema in mouse at 10 mg/kg, ip treated 30 mins before bradykinin challenge measured after 60 mins by plethysmometry analysis; assay type: functional; conditions: route intraperitoneal
Mus musculus [13] = experiment: Antiinflammatory activity in mouse peritoneal cavity assessed as reduction in cell migration during carrageenan-induced inflammation at 0.1 mg/kg, ip administered 30 mins before carrageenan challenge measured after 4 hrs; assay type: functional, organism-based; set-up: dose 0.1 mg/kg
Mus musculus [14] = experiment: Neurotoxicity in mouse assessed as depression activity at 1 mg/kg, ip administered 15 mins before test measured after 60 seconds by rotarod test; assay type: toxicity, organism-based; set-up: dose 1 mg/kg, route intraperitoneal; conditions: in vivo, 0.25 h
Mus musculus [15] = experiment: Antinociceptive activity against formalin-induced nociception in ip dosed mouse assessed as inhibition of paw licking time administered 30 mins before formalin challenge measured after 30 mins; assay type: functional, organism-based
Mus musculus [16] = experiment: Antiinflammatory activity in mouse assessed as neutrophil population in peritoneal exudate during carrageenan-induced inflammation at 0.1 mg/kg, ip administered 30 mins before carrageenan challenge measured after 4 hrs by myeloperoxidase activity assay; assay type: functional; conditions: route intraperitoneal
RAW264.7 [17] = experiment: Reduction in LPS-induced nitric oxide production in mouse RAW264.7 cells at 10 uM after 24 hrs by Griess assay (Rvb=74.2 +/- 1.6 uM); assay type: functional
Mus musculus [18] = experiment: Antiinflammatory activity against bradykinin-induced paw oedema in mouse at 10 mg/kg, ip treated 30 mins before bradykinin challenge measured after 15 mins by plethysmometry analysis; assay type: functional; conditions: route intraperitoneal
RAW264.7 [19] = experiment: Antiinflammatory activity in mouse RAW264.7 cells assessed as inhibition of LPS-induced PGE2 production at 100 uM after 24 hrs by enzyme immunoassay; assay type: functional; conditions: RAW264.7, 24 h
Mus musculus [20] = experiment: Antiinflammatory activity in mouse assessed as neutrophil population in peritoneal exudate during carrageenan-induced inflammation at 10 mg/kg, ip administered 30 mins before carrageenan challenge measured after 4 hrs by myeloperoxidase activity assay; assay type: functional; conditions: route intraperitoneal
Mus musculus [21] = experiment: Antiinflammatory activity against carrageenan-induced paw oedema in mouse at 10 mg/kg, ip treated 30 mins before carrageenan challenge measured after 2 hrs by plethysmometry analysis; assay type: functional; conditions: route intraperitoneal
RAW264.7 [22] = experiment: Antiinflammatory activity in mouse RAW264.7 cells assessed as inhibition of LPS-induced PGE2 production at 3 uM after 24 hrs by enzyme immunoassay; assay type: functional; conditions: RAW264.7, 24 h
[23] = Cytotoxicity against mouse RAW264.7 cells assessed as cell viability at 1 uM after 24 hrs by MTT assay; assay type: cell-based; conditions: read-out: Activity
Mus musculus [24] = experiment: Antiinflammatory activity in mouse assessed as reduction in total cell count in peritoneal exudate during carrageenan-induced inflammation at 10 mg/kg, ip administered 30 mins before carrageenan challenge measured after 4 hrs; assay type: functional; set-up: scale not given: the % may be the effect or the level left; conditions: route intraperitoneal
Mus musculus [25] = experiment: Antiinflammatory activity against bradykinin-induced paw oedema in mouse at 10 mg/kg, ip treated 30 mins before bradykinin challenge measured after 120 mins by plethysmometry analysis; assay type: functional; conditions: route intraperitoneal
Mus musculus [26] = experiment: Neurotoxicity in mouse assessed as muscular impairment at 1 mg/kg, ip administered 15 mins before test measured after 60 seconds by rotarod test; assay type: toxicity, organism-based; set-up: dose 1 mg/kg, route intraperitoneal; conditions: in vivo, 0.25 h
Mus musculus [27] = experiment: Antiinflammatory activity in mouse peritoneal cavity assessed as reduction in cell migration during carrageenan-induced inflammation at 1 mg/kg, ip administered 30 mins before carrageenan challenge measured after 4 hrs; assay type: functional, organism-based; set-up: dose 1 mg/kg
Mus musculus [28] = experiment: Antiinflammatory activity against carrageenan-induced paw oedema in mouse at 10 mg/kg, ip treated 30 mins before carrageenan challenge measured after 4 hrs by plethysmometry analysis; assay type: functional; conditions: route intraperitoneal
Mus musculus [29] = experiment: Antiinflammatory activity in mouse assessed as neutrophil population in peritoneal exudate during carrageenan-induced inflammation at 0.5 mg/kg, sc administered 4 hrs before carrageenan challenge measured after 4 hrs by myeloperoxidase activity assay; assay type: functional; conditions: route subcutaneous
RAW264.7 [30] = experiment: Reduction in LPS-induced nitric oxide production in mouse RAW264.7 cells at 1 uM after 24 hrs by Griess assay (Rvb=74.2 +/- 1.6 uM); assay type: functional
Mus musculus [31] = experiment: Antiinflammatory activity in mouse assessed as neutrophil population in peritoneal exudate during carrageenan-induced inflammation at 1 mg/kg, ip administered 30 mins before carrageenan challenge measured after 4 hrs by myeloperoxidase activity assay; assay type: functional; conditions: route intraperitoneal
Mus musculus [32] = experiment: Antiinflammatory activity in ip dosed mouse assessed as inhibition of acetic acid-induced abdominal constriction administered 30 mins before acetic acid challenge; assay type: functional, Abdomen
Mus musculus [33] = experiment: Neurotoxicity in mouse assessed as depression activity at 10 mg/kg, ip treated 15 mins before test measured after 60 seconds by rotarod test; assay type: toxicity, organism-based; set-up: dose 10 mg/kg, route intraperitoneal; conditions: in vivo, 0.25 h
Mus musculus [34] = experiment: Antiinflammatory activity against bradykinin-induced paw oedema in mouse at 10 mg/kg, ip treated 30 mins before bradykinin challenge measured after 240 mins by plethysmometry analysis; assay type: functional; conditions: route intraperitoneal
RAW264.7 [35] = experiment: Antiinflammatory activity in mouse RAW264.7 cells assessed as inhibition of LPS-induced PGE2 production at 10 uM after 24 hrs by enzyme immunoassay; assay type: functional; conditions: RAW264.7, 24 h
Mus musculus [36] = experiment: Antiinflammatory activity against carrageenan-induced paw oedema in mouse at 10 mg/kg, ip treated 30 mins before carrageenan challenge measured after 6 hrs by plethysmometry analysis; assay type: functional; conditions: route intraperitoneal
Mus musculus [37] = experiment: Neurotoxicity in mouse assessed as muscular impairment at 10 mg/kg, ip administered 15 mins before test measured after 60 seconds by rotarod test; assay type: toxicity, organism-based; set-up: dose 10 mg/kg, route intraperitoneal; conditions: in vivo, 0.25 h
Mus musculus [38] = experiment: Antiinflammatory activity against carrageenan-induced paw oedema in mouse at 10 mg/kg, ip treated 30 mins before carrageenan challenge measured after 5 hrs by plethysmometry analysis; assay type: functional; conditions: route intraperitoneal
Mus musculus [39] = experiment: Antiinflammatory activity against bradykinin-induced paw oedema in mouse at 10 mg/kg, ip treated 30 mins before bradykinin challenge measured after 30 mins by plethysmometry analysis; assay type: functional; conditions: route intraperitoneal
Mus musculus [40] = experiment: Antinociceptive activity against formalin-induced nociception in mouse assessed as inhibition of paw licking time at 10 mg/kg, ip administered 30 mins before formalin challenge measured after 30 mins relative to control; assay type: functional; conditions: route intraperitoneal
RAW264.7 [41] = experiment: Reduction in LPS-induced nitric oxide production in mouse RAW264.7 cells at 3 uM after 24 hrs by Griess assay (Rvb=74.2 +/- 1.6 uM); assay type: functional
[42] = Cytotoxicity against mouse RAW264.7 cells assessed as cell viability at 3 uM after 24 hrs by MTT assay; assay type: cell-based; conditions: read-out: Activity
Mus musculus [43] = experiment: Antiinflammatory activity against carrageenan-induced paw oedema in mouse at 10 mg/kg, ip treated 30 mins before carrageenan challenge measured after 1 hr by plethysmometry analysis; assay type: functional; conditions: route intraperitoneal
[44] = Cytotoxicity against mouse RAW264.7 cells assessed as cell viability at 10 uM after 24 hrs by MTT assay; assay type: cell-based; conditions: read-out: Activity

Structure (SMILES): COc1cc(/C=C/C(=O)/C=C/c2ccc(O)c(OC)c2)ccc1O
- inhibition in vivo at 1 mg/kg (Mus musculus [1]): 4%
- inhibition in vivo at 1 mg/kg (Mus musculus [2]): 2.5%
- inhibition in vivo at 1 mg/kg (Mus musculus [3]): 22.9%
- inhibition in vivo at 1 mg/kg (Mus musculus [4]): 5.04%
- inhibition in vivo at 1 mg/kg (Mus musculus [5]): 17.4%
- inhibition in vivo at 1 mg/kg (Mus musculus [6]): 2.2%
- inhibition in vivo at 1 mg/kg (Mus musculus [7]): 15.1%
- inhibition in vivo at 1 mg/kg (Mus musculus [8]): 3.25%
- inhibition in vivo at 1 mg/kg (Mus musculus [9]): 14.6%
- inhibition in vivo at 1 mg/kg (Mus musculus [10]): 10.1%

Structure (SMILES): COc1ccc2c(c1)c(CC(=O)O)c(C)n2C(=O)c1ccc(Cl)cc1 [INDOMETHACIN]
- inhibition in vivo at 1 mg/kg (Mus musculus [1]): 3.5%
- inhibition in vivo at 1 mg/kg (Mus musculus [2]): 2.09%
- inhibition in vivo at 1 mg/kg (Mus musculus [3]): 10.8%
- inhibition in vivo at 1 mg/kg (Mus musculus [4]): 5%
- inhibition in vivo at 1 mg/kg (Mus musculus [5]): 7.14%
- inhibition in vivo at 1 mg/kg (Mus musculus [6]): 1.9%
- inhibition in vivo at 1 mg/kg (Mus musculus [7]): 6.28%
- inhibition in vivo at 1 mg/kg (Mus musculus [8]): 2.5%
- inhibition in vivo at 1 mg/kg (Mus musculus [9]): 12.6%
- inhibition in vivo at 1 mg/kg (Mus musculus [10]): 5.66%

- EC50 (Mus musculus [15]): 5.8 mg/kg
Structure (SMILES): COc1cc(/C=C/C(=O)/C=C/c2ccc(OC(C)=O)c(OC)c2)ccc1OC(C)=O
- Activity (Mus musculus [11]): 20%
- inhibition in vivo at 10 mg/kg (Mus musculus [12]): 2.8%
- Activity (Mus musculus [13]): inactive
- Activity (Mus musculus [14]): Non-toxic
- Activity (Mus musculus [16]): 98%
- Activity (RAW264.7 [17]): 3 µM
- inhibition in vivo at 10 mg/kg (Mus musculus [18]): 4.25%
- inhibition at 100 µM (RAW264.7 [19]): 76%
- Activity (Mus musculus [20]): 98%
- inhibition in vivo at 10 mg/kg (Mus musculus [21]): 12.1%
- inhibition at 3 µM (RAW264.7 [22]): 48%
- viability at 24 h, 1 µM [23]: > 90%
- Activity (Mus musculus [24]): 50%
- inhibition in vivo at 10 mg/kg (Mus musculus [25]): 2.5%
- Activity (Mus musculus [26]): Non-toxic
- Activity (Mus musculus [27]): inactive
- inhibition in vivo at 10 mg/kg (Mus musculus [28]): 8.67%
- Activity (Mus musculus [29]): 98%
- Activity (RAW264.7 [30]): 49 µM
- Activity (Mus musculus [31]): 98%
- inhibition (INH) (Mus musculus [32]): 82.5%
- ED50 (Mus musculus [32]; Mus musculus, Abdomen, ip): 7.6 mg/kg
- Activity (Mus musculus [33]): Non-toxic
- inhibition in vivo at 10 mg/kg (Mus musculus [34]): 2.18%
- inhibition at 10 µM (RAW264.7 [35]): 71%
- inhibition in vivo at 10 mg/kg (Mus musculus [36]): 6.57%
- Activity (Mus musculus [37]): Non-toxic
- inhibition in vivo at 10 mg/kg (Mus musculus [38]): 8.57%
- inhibition in vivo at 10 mg/kg (Mus musculus [39]): 3%
- inhibition in vivo at 10 mg/kg (Mus musculus [40]): 86%
- Activity (RAW264.7 [41]): 20 µM
- viability at 24 h, 3 µM [42]: > 90%
- inhibition in vivo at 10 mg/kg (Mus musculus [43]): 10.8%
- viability at 24 h, 10 µM [44]: > 90%
